Laboratory results: paper PMC6882446, “Further validation of strecker-type α-aminonitriles as a new class of potent human carbonic anhydrase II inhibitors: hit expansion within the public domain using differential scanning fluorimetry leads to chemotype refinement” (Journal of Enzyme Inhibition and Medicinal Chemistry, 2019)
Read-outs that look alike come from different tables or passages of the source.

Experiments:
hCA II = target: T1, hCA II (Homo sapiens, UniProt P00918); test: stopped-flow CO2 hydration assay; assay type: biochemical
T1 construct: gene CA2; recombinant human CA II, obtained in-house
Source text: stopped-flow CO2 hydration assay on hCA II

bCA [1] = target: T2, bCA (Bos taurus, UniProt P00921); test: biochemical; set-up: Differential scanning fluorimetry (SYPRO Orange) melting temperature shift of bCA, 20 uM compound
T2 construct: gene CA2; commercial bovine carbonic anhydrase
Method: (§1) Thermal shift assay was carried out using ViiA™ 7 Real-Time PCR System equipped with 384-well block (Applied Biosystems, USA). The TSA procedure was adopted from the literature[6–8] and was modified in order to allow measuring the bCA melting temperature on interaction with various compounds, including the known CA inhibitor azetazolamide (AZ)[9], which was used in this study as a reference bCA binder at 10 and 20 µM concentration. For 800-compound screening, the test reactions were set up in the following buffer: 10 mM NaH2PO4/Na2HPO4, pH 7.0, 10 mM NaCl. The total volume of the reaction mixture per well was 10 µL. Carbonic anhydrase (Sigma Aldrich Cat# C3934) in 300 µg/mL concentration was pre-mixed with environment-sensitive SYPRO orange dye (Invitrogen, Cat# S6650) at final concentration in the reaction of 10 ×, with regard to the stock concentration stated by the vendor. The mixtures were pre-incubated for 1 h at 4 °C with 20 µM concentrations of the compounds (and 1% final concentration of DMSO), placed into MicroAmp® Optical 384-Well Reaction Plate (ThermoFisher, Cat# 4309849). The reaction mixture was kept at room temperature for 15 min to ensure full protein-compound interactions. The temperature was raised at 1.6 °C/s rate to 40 °C without signal reading. Starting from 40 °C up to 85 °C the heating rate was set to 0.05 °C/s with constant fluorescence reading, using 470/623 nm filter set. The raw data of dye fluorescence intensity change upon melting of the protein were obtained from the instrument ViiA 7 RUO software. Further data processing and visualisation was performed by custom-made Microsoft Excel scripts. The peak of the first derivative for the fluorescence curve was used to define melting temperature Tm. Tm for DMSO control wells, having only protein, dye and 1% DMSO was used as a To to determine melting temperature shifts (ΔTm). All measurements were made in quadruplicates.

bCA [2] = target: T2, bCA; test: biochemical; set-up: differential scanning fluorimetry (thermal shift) with SYPRO Orange, bovine carbonic anhydrase
Method: as §1, with “For” for “Thermal shift assay was carried out using ViiA™ 7 Real-Time PCR System equipped with 384-well block (Applied Biosystems, USA). The TSA procedure was adopted from the literature[6–8] and was modified in order to allow measuring the bCA melting temperature on interaction with various compounds, including the known CA inhibitor azetazolamide (AZ)[9], which was used in this study as a reference bCA binder at 10 and 20 µM concentration. For”, “quadruplicates. Thermal shift assay was carried out using ViiA™ 7 Real-Time PCR System equipped with 384-well block (Applied Biosystems, USA). The TSA procedure was adopted from the literature[6–8] and was modified in order to allow measuring the bCA melting temperature on interaction with various compounds, including the known CA inhibitor azetazolamide (AZ)[9], which was used in this study as a reference bCA binder at 10 and 20 µM concentration.” for “quadruplicates.”

[3] = CO2 […]; […] Hepes pH […]; […] Na2SO4, room temperature, […] min pre-incubation

T2 sequence (P00921 2-260): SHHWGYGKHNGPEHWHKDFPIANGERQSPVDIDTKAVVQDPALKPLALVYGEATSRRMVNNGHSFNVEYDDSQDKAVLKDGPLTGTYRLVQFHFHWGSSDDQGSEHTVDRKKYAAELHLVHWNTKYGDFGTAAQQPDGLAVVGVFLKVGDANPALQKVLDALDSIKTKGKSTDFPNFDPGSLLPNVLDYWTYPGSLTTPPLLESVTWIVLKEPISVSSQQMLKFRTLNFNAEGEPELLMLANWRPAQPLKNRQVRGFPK

Row | Compound | Ki (hCA II; [3]) | also measured
1 | COc1ccc(C(C#N)N2CCN(C(=O)c3ccc4[nH]c5c(c4c3)CC(C)CC5)CC2)cc1 (stereo not drawn) [compound 7, Z118259780] | > 100 µM | 
2 | COc1ccc(C(C#N)N2CCN(C(=O)C3CCCCC3)CC2)cc1 (stereo not drawn) [compound 30, Z146384300] |  | Ki (hCA II): 0.91 µM; ΔTm at 20 µM (bCA [1]): 1.64 °C
3 | N#CC1COCCN1 (stereo not drawn) [compound 43, Z1198234963] | > 100 µM | 
4 | CC1(C)CN(C(C#N)c2ccc(Cl)cc2)CCO1 (stereo not drawn) [compound 13, Z1097120891] | 7.4 µM | 
5 | N#CC(c1ccccc1)N1CCN(C(=O)c2ccccc2)CC1 (stereo not drawn) [compound 10, Z146786712] | 53.7 µM | 
6 | CCC(CC)c1cc(C(=O)N2CCN(C(C#N)C(C)C)CC2)on1 (stereo not drawn) [compound 22, Z1261078980] | > 100 µM | 
7 | CC(C)C(C#N)N1CCN(C(=O)c2scnc2C(C)(C)C)CC1 (stereo not drawn) [compound 23, Z1322755479] | 9.1 µM | 
8 | Cc1ccc(N(CC(=O)N2CCN(C(C#N)C(C)C)CC2)C(C)C)cc1 (stereo not drawn) [compound 34, Z1567293695] | 5 µM | 
9 | CC(C)C(C#N)N1CCN(C(=O)CSc2ccc(Br)cc2)CC1 (stereo not drawn) [compound 36] |  | ΔTm at 20 µM (bCA [2]): 1.64 °C
10 | COc1ccc(C(C#N)N2CCN(C(=O)c3ccc(S(=O)(=O)N4CCCCCC4)cc3)CC2)cc1 (stereo not drawn) [compound 9, Z118259626] | > 100 µM | 
11 | CC(C)C(C#N)N1CCN(C(=O)C/C=C/c2cccc(F)c2)CC1 (stereo not drawn) [compound 27, Z1343956502] | > 100 µM | 
12 | N#CC(c1ccccc1)N1CCN(CC(=O)NCC2CCC2)CC1 (stereo not drawn) [compound 33, Z1395304494] | 5.3 µM | 
13 | CNS(=O)(=O)CCCN1CCN(C(C#N)c2ccccc2)CC1 (stereo not drawn) [compound 32, Z1395303258] |  | Ki (hCA II): 0.86 µM
14 | COc1ccc(C(C#N)N2CCN(C(=O)c3ccc(Br)cc3)CC2)cc1 (stereo not drawn) [compound 4, Z118259550] | > 100 µM | 
15 | CC(C)C(C#N)N1CCN(CC(=O)NCc2ccccn2)CC1 (stereo not drawn) [compound 17, Z1176496598] |  | Ki (hCA II): 0.78 µM; ΔTm at 20 µM (bCA [1]): 1.14 °C
16 | N#CC(C1CCCCC1)N1CCN(C(=O)CCc2ccccn2)CC1 (stereo not drawn) [compound 12, Z913897024] | 40.9 µM | 
17 | CNC(=O)C1CCN(C(C#N)c2c(F)cccc2Cl)CC1 (stereo not drawn) [compound 26, Z1297989190] | 3 µM | 
18 | Cc1ccc(C(=O)NCC(=O)N2CCN(C(C#N)C(C)C)CC2)cc1 (stereo not drawn) [compound 41, Z1416783341] | 35.1 µM | 
19 | N#CC(c1ccccc1)N1CCN(CC(=O)NC2CCOCC2)CC1 (stereo not drawn) [compound 28, Z1317906129] | 8.9 µM | 
20 | Cc1ccc(C(=O)C2CCN(CC(=O)N3CCN(C(C#N)C(C)C)CC3)CC2)cc1 (stereo not drawn) [compound 48, Z1567280757] | 5.5 µM | 
21 | Cn1cc(CN2CCN(C(C#N)c3ccccc3)CC2)c(-c2cccnc2)n1 (stereo not drawn) [compound 50, Z1470771430] |  | Ki (hCA II): 0.68 µM; ΔTm at 20 µM (bCA [1]): 1.37 °C
22 | N#CC(c1ccc(Br)cc1)N1CCN(CCN2C(=O)CNC2=O)CC1 (stereo not drawn) [compound 38, Z1567199718] | 5 µM | 
23 | COc1ccc(C(=O)N2CCN(C(C#N)C(C)C)CC2)cc1OC(F)F (stereo not drawn) [compound 46] |  | ΔTm at 20 µM (bCA [2]): 1.37 °C
24 | CC(C)C(C#N)N1CCN(c2ncnc3ccsc23)CC1 (stereo not drawn) [compound 16, Z1251205249] |  | Ki (hCA II): 0.97 µM; ΔTm at 20 µM (bCA [1]): 1.5 °C

Row | Compound | Ki (hCA II; [3]) | also measured
25 | Cc1ccccc1CN1CCN(C(=O)CN2CCN(C(C#N)C(C)C)CC2)CC1 (stereo not drawn) [compound 35, Z1171402445] |  | Ki (hCA II): 60.5 µM; ΔTm at 20 µM (bCA [1]): 1.82 °C
26 | N#CC(Nc1ccc(F)cc1)c1ccco1 (stereo not drawn) [compound 5, Z131022682] | 8.1 µM | 
27 | CC(C#N)N1CCN(C(=O)OC(C)(C)C)CC1 (stereo not drawn) [compound 40, Z1124717499] | 41.9 µM | 
28 | CC(C)C(C#N)N1CCN(c2ncnc3cc(F)ccc23)CC1 (stereo not drawn) [compound 15, Z1251205230] | > 100 µM | 
29 | Cc1cnc(C(=O)N2CCN(Cc3ccccc3)C(C#N)C2)cn1 (stereo not drawn) [compound 20, Z1204317166] | 100 µM | 
30 | N#CC(c1ccccc1)N1CCN(CC2CCOC2)CC1 (stereo not drawn) [compound 37, Z1395305944] | 2.3 µM | 
31 | N#CC(c1ccccc1)N1CCN(CC(=O)NCC(F)(F)F)CC1 (stereo not drawn) [compound 49, Z1317905463] | 3.5 µM | 
32 | CC(C)C(C#N)N1CCN(C(=O)C2CCCO2)CC1 (stereo not drawn) [compound 39, Z1167645477] |  | Ki (hCA II): 20.4 µM
33 | CC(C)C(C#N)N1CCN(Cc2nccn2CC(F)(F)F)CC1 (stereo not drawn) [compound 47] |  | ΔTm at 20 µM (bCA [2]): 1.19 °C
34 | N#CC(c1c(F)cccc1Cl)N1CCC(N2CCCC2=O)CC1 (stereo not drawn) [compound 25, Z1298979831] | 36.1 µM | 
35 | CC(C)C(C#N)N1CCN(C(=O)CSc2ccc(Br)cc2)CC1 (stereo not drawn) [compound 36, Z1167646026] |  | Ki (hCA II): 29.8 µM
36 | COc1ccc(C(=O)N2CCN(C(C#N)C(C)C)CC2)cc1OC(F)F (stereo not drawn) [compound 46, Z1126852482] |  | Ki (hCA II): 3.7 µM
37 | N#CC(c1ccccc1)N1CCN(C(=O)C2CCN(S(=O)(=O)c3ccccc3F)CC2)CC1 (stereo not drawn) [compound 8, Z118260178] | 74.3 µM | 
38 | CC(C)C(C#N)N1CCN(C(=O)C2CCCO2)CC1 (stereo not drawn) [compound 39] |  | ΔTm at 20 µM (bCA [2]): 1.64 °C
39 | N#Cc1nccnc1N1CCN(Cc2ccccc2)C(C#N)C1 (stereo not drawn) [compound 21, Z1205181012] | > 100 µM | 
40 | CC(C)C(C#N)N1CCN(Cc2nccn2CC(F)(F)F)CC1 (stereo not drawn) [compound 47, Z1176495724] |  | Ki (hCA II): 38.2 µM
41 | N#CC1CN(C(=O)CCc2ccsc2)CCN1Cc1ccccc1 (stereo not drawn) [compound 19, Z1204316164] | 9.6 µM | 
42 | CC(C)C(C#N)N1CCN(C(=O)CN2CCOC(c3ccc(F)cc3)C2)CC1 (stereo not drawn) [compound 45, Z1567277098] | 40.9 µM | 
43 | CCNC(=O)C1CCCN(C(C#N)c2c(F)cccc2Cl)C1 (stereo not drawn) [compound 14, Z1230758078] | 9.3 µM | 
44 | N#CC(c1ccccc1)N1CCN(Cc2cccnc2)CC1 (stereo not drawn) [compound 29, Z1317905741] | 3.7 µM | 
45 | CCNC(=O)CCCC(=O)N1CCN(C(C#N)c2ccccc2)CC1 (stereo not drawn) [compound 18, Z1185260979] |  | Ki (hCA II): 0.93 µM; ΔTm at 20 µM (bCA [1]): 1.41 °C
46 | CCc1noc(CC)c1CC(=O)N1CCN(C(C#N)C(C)C)CC1 (stereo not drawn) [compound 31, Z1390085782] |  | Ki (hCA II): 0.76 µM; ΔTm at 20 µM (bCA [1]): 1.55 °C
47 | N#CC(c1c(F)cccc1Cl)N1CCCC(N2CCNC2=O)C1 (stereo not drawn) [compound 24, Z1298330150] | 16 µM | 
